The results in this text go back to US20180318275A1, “COMBINATION THERAPY USING PI3K INHIBITOR AND MDM2 INHIBITOR” (Novartis AG, priority 2015, published 2018).

Common to all, as to type: cell-based
Assay [1] has as its system 5 TP53 wild type colorectal cancer cell lines. The assay can be described thus: Cell proliferation over the cell line panel, Example 2. The settings on record: Example 2, panel of 5 lines, 13 nM-10 μM. On the procedure:
To test the effect of the combination of COMPOUND A and COMPOUND B on cell proliferation cells were plated in black 384-well microplates with clear bottom (Matrix/Thermo Scientific, Catalog number 4332) in 50 μL media per well at cell densities between 500 and 1250 cells/well (Table 1) and allowed to incubate at 37 degrees, 5% CO2 for 24 h. After 24 h one 384-well plate per cell line was prepared for cell counting by microscopy (see below) without receiving treatment (=‘baseline’). The other cell plates were treated by transferring 25 nL of the 2000× compound from drug master plates using an ATS acoustic liquid dispenser (ECD Biosystems) and resulting in a final 1× concentration. COMPOUND A was used over a final concentration range of 13 nM-10 μM, and COMPOUND B was used over a final concentration range of 13 nM-10 μM (7 1:3 dilution steps). […] Caspase 3/7 induction was measured as a proxy for apoptosis induced by the treatments. Cells were treated for 72 h to 96 h depending on their doubling time (Table 1), and Caspase 3/7 activation was measured every 24 h by microscopy using an InCell Analyzer 2000 (GE Healthcare) equipped with a 4× objective and FITC excitation/emission filters. […] All cells per well/treatment were captured in a single image by fluorescence microscopy using an InCell Analyzer 2000 (GE Healthcare) equipped with a 4× objective and DAPI excitation/emission filters. […]

The next assay concerns LS-180. The assay can be described thus: Cell proliferation (cell count by microscopy), Example 2. The following applies: Homo sapiens, LS180; LS-160 (so in the source), single agent, 72 h, cell count relative to DMSO. On the procedure:
(§1) COMPOUNDS A and B were dissolved in 100% DMSO (Sigma, Catalog number D2650) at concentrations of 20 mM and stored at −20° C. until use. Compounds were arrayed in drug master plates (Greiner, Catalog number 788876) and serially diluted 3-fold (7 steps) at 2000× concentration.
(§2) To test the effect of the combination of COMPOUND A and COMPOUND B on cell proliferation cells were plated in black 384-well microplates with clear bottom (Matrix/Thermo Scientific, Catalog number 4332) in 50 μL media per well at cell densities between 500 and 1250 cells/well (Table 1) and allowed to incubate at 37 degrees, 5% CO2 for 24 h. After 24 h one 384-well plate per cell line was prepared for cell counting by microscopy (see below) without receiving treatment (=‘baseline’). The other cell plates were treated by transferring 25 nL of the 2000× compound from drug master plates using an ATS acoustic liquid dispenser (ECD Biosystems) and resulting in a final 1× concentration. COMPOUND A was used over a final concentration range of 13 nM-10 μM, and COMPOUND B was used over a final concentration range of 13 nM-10 μM (7 1:3 dilution steps). For the combination of COMPOUND A with COMPOUND B the single agents were combined at a fixed ratio of 1:1 at each dilution resulting in 7 combination treatments. […] After compound addition 50 nL of 2 mM CellEvent Caspase-3/7 Green Detection Reagent (ThermoFisher, Catalog number C10423) were added to one of the three replicates using the HP D300 Digital Dispenser (Tecan). Caspase 3/7 induction was measured as a proxy for apoptosis induced by the treatments. Cells were treated for 72 h to 96 h depending on their doubling time (Table 1), and Caspase 3/7 activation was measured every 24 h by microscopy using an InCell Analyzer 2000 (GE Healthcare) equipped with a 4× objective and FITC excitation/emission filters. At the end of the treatment cells were prepared for cell counting by microscopy. Cells were fixed and permeabilised for 45 minutes in 4% PFA (Electron Microscopy Sciences, Catalog number 15714), 0.12% TX-100 (Electron Microscopy Sciences, Catalog number 22140) in PBS (Boston Bioproducts, Catalog number BM-220). After washing cells three times with PBS their DNA was stained for 30 minutes with Hoechst 33342 (ThermoFisher, Catalog number H3570) at a final concentration of 4 μg/mL. Cells were washed three times with PBS and then plates were heat-sealed using a PlateLoc (Agilent Technologies) with aluminum seals (Agilent Technologies, Catalog number 06644-001) and stored at 4° C. until imaging. All cells per well/treatment were captured in a single image by fluorescence microscopy using an InCell Analyzer 2000 (GE Healthcare) equipped with a 4× objective and DAPI excitation/emission filters.
(§3) Images were analyzed after adapting previously described methods (Horn, Sandmann et al. 2011, Nat. Methods 8(4): 341-346) and using the Bioconductor package EBImage in R (Pau, Fuchs et al. 2010, Bioinformatics 26(7):979-981). Objects in both channels, DAPI (for Hoechst/DNA) and FITC (for Caspase 3/7), were segmented separately by adaptive thresholding and counted. A threshold for Caspase 3/7 positive objects was defined manually per cell line after comparing negative controls (DMSO) and positive controls (Staurosporine). By analyzing 17 additional object/nuclei features in the DNA channel (shape and intensity features) debris/fragmented nuclei were identified. To this end per cell line the distributions of the additional features between positive controls (Staurosporine) and negative controls (DMSO) were compared manually. Features that could differentiate between the conditions (e.g. a shift in the distribution of a feature measurement comparing DMSO with Staurosporine) where used to define the ‘debris’ population versus the population of ‘viable’ nuclei. The debris counts were subtracted from raw nuclei counts. The resulting nuclei number was used as measure of cell proliferation (‘cell count’). […]

Another assay deals with LoVo. The description is as above. The following applies: Homo sapiens, single agent, 96 h, cell count relative to DMSO. Here is the method: as §1, §2, §3
The test system of the next assay is RKO. The description is as above. The following applies: Homo sapiens, single agent, 72 h, cell count relative to DMSO. On the procedure:
as §1, §2, §3

A further assay deals with GP2d. The assay is described as above. The following applies: single agent, 72 h, cell count relative to DMSO, unit from text b187 (micromolar, top dose 10 μM). Here is the method: as §1, §2, §3
Another assay has as its system HCT-116. Described as above. The following applies: Homo sapiens; HCT-116, single agent, 72 h, cell count relative to DMSO. On the procedure: as §1, §2, §3

Molecules are shown by their SMILES.

As usually defined, the IC50 is the midpoint of a concentration-inhibition curve. Turning to `Cc1nc(NC(=O)N2CCC[C@H]2C(N)=O)sc1-c1ccnc(C(C)(C)C(F)(F)F)c1` [COMPOUND A, (S)-Pyrrolidine-1,2-dicarboxylic acid 2-amide 1-({4-methyl-5-[2-(2,2,2-trifluoro-1,1-dimethyl-ethyl)-pyridin-4-yl]-thiazol-2-yl}-amide)], in assay [1], the “Single agent growth inhibition, in words” value was “inhibited the growth of 2 of the cell lines with micromolar IC50 values, and was active only at the highest dose (10 μM) in the 3 other lines”. Moreover, the IC50 in the assay with LS-180 was over 10000 nM; with LoVo it was over 10000 nM; in the assay with RKO, 3900 nM; in the assay with GP2d, 500 nM; in the assay with HCT-116, 9800 nM.

As to `COc1cc2c(cc1OC(C)C)[C@H](c1ccc(Cl)cc1)N(c1ccc(N(C)C[C@H]3CC[C@H](N4CCN(C)C(=O)C4)CC3)cc1)C(=O)C2` [COMPOUND B, (S)-1-(4-Chloro-phenyl)-7-isopropoxy-6-methoxy-2-(4-{methyl-[4-(4-methyl-3-oxo-piperazin-1-yl)-trans-cyclohexylmethyl]-amino}-phenyl)-1,4-dihydro-2H-isoquinolin-3-one], in assay [1], the “Single agent growth inhibition, in words” value is “inhibited the growth of cell lines with sub-micromolar to micromolar IC50 values”. Moreover, the 50% inhibitory concentration (IC50) in the assay on LS-180 turned out to be 700 nM; in the assay with LoVo, 600 nM; in the assay on RKO, 1200 nM; with GP2d, 800 nM; in the assay on HCT-116 it was 100 nM.
